These results are taken from patent EP1142583A1, “ANTITUMOR AGENTS” (TEIKOKU HORMONE MFG. CO., LTD., priority 1999, dated 2000).

The subject of this data set is WiDr cells. The experiment in a line: Cell death rate by flow cytometry (PI DNA content, EPICS XL). Format: cell-based, human. The conditions noted are these: for Cell death rate (%): WiDr cells. The protocol: DMEM medium containing 10% fetal bovine serum was placed in plastic culture dishes having a diameter of 6 cm. Then, WiDr cells (obtained from HSRRB), which were human colon carcinoma cells, were inoculated thereinto so as to give a density of 2.0 x 10^5 cells/3 mL. These culture dishes were incubated at 37°C for 48 hours. Moreover, 1/1000 volume of PD98059 (with a final concentration of 50 µmol/L) or solvent (DMSO) was added thereto, followed by incubation for 12 hours. Thereafter, 1/1000 volume of TZT-1027 (with a final concentration of 10 nmol/L) or solvent (a lactic acid buffer) was added thereto. Where vincristine was used as the microtubule-interfering agent, 1/1000 volume of vincristine sulfate (with a final concentration of 100 nmol/L) or solvent (DMSO) was added thereto. Twenty-four (24), 48, 72 or 96 hours after the addition of TZT-1027, vincristine or solvent, cells were collected and worked up according to the following procedure. With respect to a solvent control group and a group treated with PD98059 alone, cells were similarly collected and worked up after 96 hours' incubation.
First of all, all of the culture medium was transferred to a centrifuge tube. The remaining cells were suspended by adding 1 mL of a 0.05% trypsin/phosphate-buffered physiological saline (PBS)-EDTA solution to the culture dish and incubating it at 37°C for 5 minutes, and combined with the above culture medium. The centrifuge tube was centrifuged at 1,500 rpm for 5 minutes. Then, the precipitate was resuspended in 1 mL of PBS, transferred to a light-shielding microtube, and centrifuged at 2,500 rpm for 5 minutes. After the precipitate was suspended in 60 µL of PBS, 140 µL of 100% ethanol was added thereto and the resulting suspension was stirred and allowed to stand at -20°C overnight or longer. Moreover, the suspension was centrifuged at 2,500 rpm for 5 minutes, and 100 µL of a phosphate-citric acid buffer (0.2M […] : 0.1M citric acid = 24:1) was added to the precipitate, followed by stirring (at 500 rpm) at room temperature for 30 minutes. After suspension was centrifuged at 2,500 rpm for 5 minutes, 100 µL of PBS and 1 µL of an RNase solution (10 mg/mL (PBS); obtained from SIGMA) was added to the precipitate, followed by incubation at 37°C for 30 minutes. Thereafter, 880 µL of PBS and 20 µL of a propidium iodide (hereinafter referred to as "PI") solution (1 mg/mL (PBS); obtained from Wako Pure Chemical Industries Ltd.) were added thereto and reacted at room temperature for 30 minutes with stirring. The resulting reaction mixture was allowed to stand in the dark under cooling with ice until it was used for measurement.
The cell death rate was measured and analyzed by means of an EPICS XL system (manufactured by COULTER). Prior to analysis, the EPICS XL system was checked by means of DNAcheck (manufactured by COULTER).
Next, a protocol used for calculating the cell death rate by using the DNA content as a parameter was constructed. In this protocol, FS (forward scatter), SS (side scatter) and FL3 (PI fluorescence) were selected as parameters, and the number of analyzed cells was 30,000. Furthermore, by measuring a control sample of cells to be actually measured, the sensitivity of the detector and regions were preset with consideration for each parameter. Measurements were made by pipetting a sample at several times, transferring it into an exclusive tube, and setting it in the main unit of the EPICS XL system. The cell death rate was calculated by use of histograms in the protocol, which were constructed by removing doublets and triplets from data incorporating dead cells.
In general terms: A flow cytometer gives signals particle by particle.

Where [1] appears, read: Homo sapiens, WiDr, 96 h, read-out: Cell death rate (%).
[2] abbreviates: Homo sapiens, WiDr, 24 h, read-out: Cell death rate (%).
[3] abbreviates: Homo sapiens, WiDr, 48 h, read-out: Cell death rate (%).

Where two headings read alike, the source gives them in different places.

Regarding `COc1cccc(-c2cc(=O)c3ccccc3o2)c1N` [PD98059, 2-(2-amino-3-methoxyphenyl)-4H-chromen-4-one], the cytotoxicity at 50 µM under setting [1] was 8.9%.
For `CC[C@H](C)[C@@H]([C@@H](CC(=O)N1CCC[C@H]1[C@H](OC)[C@@H](C)C(=O)NCCc1ccccc1)OC)N(C)C(=O)[C@@H](NC(=O)[C@H](C(C)C)N(C)C)C(C)C` [TZT-1027, N^2-(N,N-Dimethyl-L-valyl)-N-[(1S,2R)-2-methoxy-4-[(2S)-2-[(1R,2R)-1-methoxy-2-methyl-3-oxo-3-[(2-phenylethyl)-amino]propyl]-1-pyrrolidinyl]-1-[(S)-1-methylpropyl]-4-oxobutyl]-N-methyl-L-valinamide], the cytotoxicity at 0.01 µM under setting [2] stood at 3.8%, the cytotoxicity at 0.01 µM under setting [3] worked out at 9.2% and the cytotoxicity at 0.01 µM under setting [1] amounted to 23.3%. Further, the “Cell death rate (%)” value (TZT-1027 10 nmol/L combined with PD98059 50 µmol/L (added 12 hours before), time 24) was 10.5%; the “Cell death rate (%)” value (TZT-1027 10 nmol/L combined with PD98059 50 µmol/L (added 12 hours before), time 48) amounted to 35.9%; the “Cell death rate (%)” value (TZT-1027 10 nmol/L combined with PD98059 50 µmol/L (added 12 hours before), time 96) is on record as 48.1%.
Regarding `CC[C@]1(O)C[C@H]2CN(CCc3c([nH]c4ccccc34)[C@@](C(=O)OC)(c3cc4c(cc3OC)N(C=O)[C@H]3[C@@](O)(C(=O)OC)[C@H](OC(C)=O)[C@]5(CC)C=CCN6CC[C@]43[C@@H]65)C2)C1` [Vincristine, vincristine], the cytotoxicity at 0.1 µM is, setting by setting: under setting [2], 4.5%; under setting [3], 8.4%; (Homo sapiens, WiDr, 72 h, read-out: Cell death rate (%)) 23.3%. Further, the “Cell death rate (%)” value was 12.1% (Vincristine 100 nmol/L combined with PD98059 50 µmol/L (added 12 hours before), time 24); 37.4% (Vincristine 100 nmol/L combined with PD98059 50 µmol/L (added 12 hours before), time 48); 58.7% (Vincristine 100 nmol/L combined with PD98059 50 µmol/L (added 12 hours before), time 72).
